From ChEMBL document CHEMBL1146471, “Camptothecin and taxol: historic achievements in natural products research” (J Nat Prod, 2004) come the findings set out here.

Molecules are shown by their SMILES.

For this experiment, the species on record is Homo sapiens. Put plainly: Anticancer activity against human with metastatic pancreatic cancer assessed as median survival. The format is functional.

As to `CCc1c2c(nc3ccc(OC(=O)N4CCC(N5CCCCC5)CC4)cc13)-c1cc3c(c(=O)n1C2)COC(=O)[C@]3(O)CC`, the Survival was 10.3 months.
